# Test results taken from ChEMBL document CHEMBL4689842, “EUbOPEN Chemogenomics Library wave 1” (2021).
# How the values were obtained:
# [1] = system: HEK-293T; assay: Incucyte cell viability with HEK293T; format: toxicity, cell-based; conditions: human, 10 µM, compound concentration 10 uM
# [2] = system: Fibroblast; assay: Incucyte cell viability with human fibroblast; format: toxicity, cell-based; conditions: 10 µM, compound concentration 10 uM
# [3] = 6 h, replicate number 1, timepoint 6 hours
# [4] = 12 h, replicate number 1, timepoint 12 hours
# [5] = 18 h, replicate number 1, timepoint 18 hours
# [6] = 24 h, replicate number 1, timepoint 24 hours
# [7] = 0 h, replicate number 1, timepoint 0 hours
# [8] = 0 h, replicate number 2, timepoint 0 hours
# [9] = 18 h, replicate number 2, timepoint 18 hours
# [10] = 6 h, replicate number 2, timepoint 6 hours
# [11] = 24 h, replicate number 2, timepoint 24 hours
# [12] = 12 h, replicate number 2, timepoint 12 hours
# Further: filed as whole numbers so only -1 and 0 and 1 occur.
Compound,"Growth Rate [1, 3]","Growth Rate [1, 4]","Growth Rate [1, 5]","Growth Rate [1, 6]","Growth Rate [2, 7]","Growth Rate [2, 3]","Growth Rate [2, 4]","Growth Rate [2, 5]","Growth Rate [2, 6]","Growth Rate [1, 8]","Growth Rate [2, 8]","Growth Rate [2, 9]","Growth Rate [1, 7]","Growth Rate [2, 10]","Growth Rate [2, 11]","Growth Rate [1, 10]","Growth Rate [2, 12]","Growth Rate [1, 12]"
CCc1ccc(OCc2ccccc2C(=O)Nc2ccc3nc(C)cc(N)c3c2)cc1.Cl,0,0,0,0,0,0,0,0,0,,,,,,,,,
C[C@]1(O)C[C@@H](c2nc(-c3ccc4ccc(-c5ccccc5)nc4c3)c3c(N)nccn32)C1 [LINSITINIB],0,0,0,0,,1,1,,1,1,0,1,,,,,,
Cc1cc(C)c(-n2ccn3nc(-c4cccnc4)cc23)cc1NC(=O)c1cc(C#N)cc(S(F)(F)(F)(F)F)c1 [BAY-826],0,0,0,0,0,1,1,1,1,,,,0,,,,,
C[C@]12CC[C@@H]3c4ccc(O)cc4CC[C@H]3[C@@H]1CC[C@@H]2O [ESTRADIOL],0,0,0,0,0,0,0,0,0,0,,,1,,,,,
CC1=C(C(=O)Nc2cc3cn[nH]c3cc2F)C(c2ccc(C(F)(F)F)cc2)CC(=O)N1 (stereo unspecified),,,,1,0,,,,1,,,,0,,,,,
Cc1nc(N2CC[C@H](O)C2)ncc1-c1cc(C(F)(F)F)cc2[nH]ncc12,0,0,0,0,0,1,0,0,0,,,,1,0,,,,
C=CC(=O)Nc1ccc2[nH]c(=O)n(C3CCN(Cc4ccc(-c5nc6cc[nH]c(=O)c6cc5-c5ccccc5)cc4)CC3)c2c1 [Borussertib],0,0,0,0,0,,1,1,1,1,,0,0,0,0,,,
Cl.O=C(O)c1cc(-c2ccc(C3CCNCC3)cc2)c2ccc(-c3ccc(C(F)(F)F)cc3)cc2c1,0,0,0,0,0,,1,1,1,,,0,0,0,0,1,0,
Cc1c[nH]c2nccc(Oc3c(F)cc(Nc4cc(Cl)nc(N)n4)cc3F)c12 [BAY-549],0,0,0,0,0,,0,0,0,,,,0,,,,1,
CC(C)c1noc(N2CCC(COc3ccc(-c4ccc(S(C)(=O)=O)cc4)nc3)CC2)n1 [GSK-1292263],0,0,0,0,0,0,0,0,0,0,,,,,,,,
CN(c1ccccc1CNc1nc(Nc2ccc3c(c2)CC(=O)N3)ncc1C(F)(F)F)S(C)(=O)=O,0,0,0,0,1,,1,0,0,,0,1,,,,,,
COc1ccccc1CN[C@H]1C2CCN(CC2)[C@H]1C(c1ccccc1)c1ccccc1 [CP-96345],0,0,0,0,0,,1,1,1,0,,0,1,0,0,,0,
CC(C)(C)NC[C@H](O)COc1nsnc1N1CCOCC1 [TIMOLOL],0,0,0,0,0,1,1,1,1,,1,0,0,0,0,,0,1
CNC(=O)Nc1ccc(-c2nc(N3CC4CCC(C3)O4)c3cnn(C4CCC5(CC4)OCCO5)c3n2)cc1,0,0,0,0,1,0,0,0,0,,0,,,,,,,
CN1CCN(Cc2cc(NC(=O)c3ccc4c(c3)CN(c3ccccc3)CC4)cc(C(F)(F)F)c2)CC1,0,0,0,0,,0,0,0,0,,1,,,,,,,
